Assay results as given in PubChem BioAssay (NCI).
Several values for one entry are separate records, joined by “and”; a condition that tells them apart may be missing. Identical values can stand only once.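 Growth conditions: 96-well plates. Treatment: test compound, 48 hours, 5 concentrations. Analysis: linear interpolation between bracketing concentrations; unreached endpoints set to highest concentration. The concentration for 50% growth inhibition is given as GI50. At the TGI there is no net growth.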

Columns and labels:
Experiment in all cases: NCI tumour cell line growth inhibition, 48 h
ACHN renal = tested on: ACHN renal
HCT-15 colon = tested on: HCT-15 colon
HOP-92 NSCLC = tested on: HOP-92 NSCLC
LOX IMVI melanoma = tested on: LOX IMVI melanoma
M14 melanoma = tested on: M14 melanoma
NCI-H522 lung = tested on: NCI-H522 lung
SF-268 CNS = tested on: SF-268 CNS
SF-539 CNS = tested on: SF-539 CNS
SN12C renal = tested on: SN12C renal
UACC-257 melanoma = tested on: UACC-257 melanoma

Row | Compound | TGI (ACHN renal) [µM] | TGI (HCT-15 colon) | TGI (HOP-92 NSCLC) | TGI (LOX IMVI melanoma) | TGI (M14 melanoma) | TGI (NCI-H522 lung) | TGI (SF-268 CNS) | TGI (SF-539 CNS) [µM] | TGI (SN12C renal) [µM] | TGI (UACC-257 melanoma) | GI50 (ACHN renal) [µM] | GI50 (HCT-15 colon) [µM] | GI50 (HOP-92 NSCLC) [µM] | GI50 (LOX IMVI melanoma) [µM] | GI50 (M14 melanoma) [µM] | GI50 (NCI-H522 lung) [µM] | GI50 (SF-268 CNS) [µM] | GI50 (SF-539 CNS) [µM] | GI50 (SN12C renal) [µM] | GI50 (UACC-257 melanoma) [µM]
1 | C=C1C(=O)C23C(CC(OC(C)=O)C1[C@@H]2OC(C)=O)C1(C)C(OC(C)=O)CCC(C)(C)C1C[C@@H]3OC(C)=O (stereo not given in full) | 2.92 | 2.52 µM | 1.35 µM | 2.63 µM | 2.92 µM | 1.66 µM | 2.98 µM | 3.16 | 2.8 | 3.14 µM |  |  |  |  |  |  |  |  |  | 
2 | COc1ccccc1OCC(O)CO (stereo not given) | > 100 | > 100 µM | > 100 µM | > 100 µM | > 100 µM | > 100 µM | > 100 µM | > 100 | > 100 | > 100 µM | > 100 | > 100 | > 100 | > 100 | > 100 | > 100 | > 100 | > 100 | > 100 | > 100
3 | NC(=NC1C2CC3CC(C2)CC1C3)Nc1ccc(I)cc1 (stereo not given) | 9.45 | 10.2 µM | 5.21 µM | 3.51 µM | 5.04 µM | 11.2 µM | 17.8 µM | 15.5 | 14.6 | 5.21 µM | 2.92 | 2.88 | 1.6 | 1.78 | 2.08 | 2.63 | 4.52 | 4.16 | 3.82 | 2.16
4 | C=C(C)[C@@H]1CC[C@]2(C#N)CC[C@]3(C)[C@H](CC[C@@H]4[C@@]5(C)CCCNC(C)(C)[C@@H]5CC[C@]43C)[C@@H]12 | 3.22 | 3.05 µM | 11.3 µM | 3.04 µM | 3.49 µM | 3.61 µM | 10.4 µM | 3.11 | 3.25 | 4.3 µM | 1.83 | 1.61 | 2.69 | 1.67 | 1.83 | 1.93 | 3.11 | 1.67 | 1.77 | 2.27
5 | COc1cc(SC)ccc1C(=O)N1CCCC(C)C1 (stereo not given) | > 100 | > 100 µM | > 100 µM | > 100 µM | > 100 µM | > 100 µM | > 100 µM | > 100 | > 100 | > 100 µM | > 100 | > 100 | 95.7 | > 100 | > 100 | > 100 | > 100 | > 100 | > 100 | 78.9
6 | Cc1cc(I)cc(CN(C)CCCCN2CCCC2)c1O | > 100 | 37.3 µM | 70.2 µM | 30.8 µM | 29.1 µM | 46.2 µM | 55.7 µM | 28.7 | > 100 | 32.8 µM | 36.8 | 15.6 | 15.3 | 15.5 | 15.1 | 22.4 | 18.1 | 14.7 | 52.2 | 16.6
7 | C[C@@H]1CC[C@H]2C(CN3CCN(CC4=C(C(F)(F)F)O[C@@H]5O[C@@]6(C)CC[C@H]7[C@H](C)CC[C@@H]4[C@@]57OO6)CC3)=C(C(F)(F)F)O[C@@H]3O[C@@]4(C)CC[C@@H]1[C@]32OO4 | > 27.2 | > 37.2 µM | > 100 µM | > 100 µM | > 100 µM | > 27 µM | > 100 µM | > 100 | > 100 | > 31.5 µM | 2.61 | 1.79 | 5.15 | 2.3 | 5.74 | 2.78 | 4.24 | 0.567 | 3.85 | 1.95
8 | O=c1c2c(=NCCCN3CCCC3)cc3c(=O)n(CCCN4CCCC4)c(=O)c4c(NCCCN5CCCC5)cc(c(O)n1CCCN1CCCC1)c2c4-3 | 26.4 | > 100 µM | 18.8 µM | 4.19 µM | 20.3 µM | 5.53 µM | 8.66 µM | 8.98 | 34.2 | 8.77 µM | 2.55 | 6.91 | 2.15 | 1.87 | 6.86 | 1.44 | 2.23 | 2.42 | 3.11 | 2.98
9 | COc1ccc(-c2nc(N)nc(-c3cc(C)ccc3O)c2Cl)cc1 | > 100 | > 100 µM | > 100 µM | > 100 µM | > 100 µM | > 100 µM | > 100 µM | > 100 | > 100 | > 100 µM |  |  |  |  |  |  |  |  |  | 
10 | O=C(O)CNS(=O)(=O)c1ccc(NC(=O)c2cccc([N+](=O)[O-])c2)cc1 | > 100 | > 100 µM | > 100 µM | > 100 µM | > 100 µM | > 100 µM | > 100 µM | > 100 | > 100 | > 100 µM |  |  |  |  |  |  |  |  |  | 
11 | Cc1ccc(S(=O)(=O)ON=C2CC(c3ccccc3)N(C)C(c3ccccc3)C2)cc1 (stereo not given) | 50.7 | 34.7 µM and 44.9 µM | 43.5 µM and 46.7 µM | 27.5 µM and 26.9 µM | 34.9 µM and 43.8 µM | 27.4 µM and 25.2 µM | 51.8 µM and 51.1 µM | 36 | 55 | 52.2 µM and 58 µM |  |  |  |  |  |  |  |  |  | 
12 | N#CCc1nc2c(s1)C(=O)c1ccccc1C2=O | 27.4 | 29.9 µM | 34.4 µM | 28.1 µM | 28.5 µM | 29.9 µM | 32.2 µM | 28 | 33.5 | 28.5 µM |  |  |  |  |  |  |  |  |  | 
13 | O=C(O)C1C2CC3CC2CC31 (stereo not given) | > 100 | > 100 µM | > 100 µM | > 100 µM | > 100 µM | > 100 µM | > 100 µM | > 100 | > 100 | > 100 µM |  |  |  |  |  |  |  |  |  | 
14 | O=C1C=Cc2noc3cccc1c23 | 7.85 | 10.8 µM | 5.22 µM | 9.51 µM | 23.2 µM | 3.04 µM | 12.4 µM | 30.2 | 27.3 | 26.4 µM |  |  |  |  |  |  |  |  |  | 
15 | Cc1[nH]nc(C(=O)N/N=C/c2cccs2)c1N=NN(C)C | 13 | 38.5 µM | 55.1 µM | 34.7 µM | > 100 µM | 29.5 µM | 37.1 µM | 36.5 | > 100 | 72.4 µM |  |  |  |  |  |  |  |  |  | 
